Experimental findings from patent US12324790B1, “Preparation method and application of micelle preparation containing thymol and derivative thereof” (Nanjing Mucosa Tech Co., Ltd., priority 2024, dated 2025) are described below.

Data set [1] in a line: States of preparations observed with the naked eyes (solubilization). As to conditions: water, without TPGS, apparent concentration 2 mg/ml. Type of data set: physicochemical.
Procedure: A surfactant TPGS was selected for solubilization. Preparation method: 40 mg of THY was weighed and placed in a beaker, added with a certain amount of water and TPGS and magnetically stirred at room temperature for 24 h. In micelle preparations 2-8, mass ratios of THY to TPGS were 2:1, 1:1, 1:2.5, 1:5, 1:7, 1:10, 1:15, and 1:20, respectively.
40 mg of THY-Tos was weighed and placed in a beaker, and added with a certain amount of water and TPGS. For Preparations 2 to 5, the mass ratios of THY-Tos to TPGS were 1:1, 1:7, 1:10, and 1:15, respectively. The above micelle preparations were magnetically stirred for 24 h to obtain the final products.
In a further data set the test system is oral ulcer rats. Briefly: Pharmacodynamic study in NaOH-induced oral ulcer rats. Also on record: species or system SD rats. The note with it: rat, in vivo. An excerpt: After 3 days of adaptive feeding, each rat was anesthetized and fixed on an operating table, the labial mucosa of the SD rat was dried with sterile cotton balls, and further sterile cotton balls were used for moisture isolation. A 3 mm×3 mm NaOH crystal was placed on the labial mucosa, and then removed after being maintained for 30 s. A treated area was wiped with sterile cotton balls containing normal saline to remove residual NaOH. […]
An area method was used to macroscopically evaluate the oral ulcer area, a maximum transverse diameter and longitudinal diameter of the ulcer were measured by vernier calipers, which were marked as d1 and d2, respectively, and a ulcer area was S=π×d1×d2×¼ (π=3.14). […]
The analysis was performed by t-test, and normally distributed quantitative data were expressed as mean±standard deviation (X, ±S), one-way ANOVA and LSD methods were used for pairwise comparison, and the Wilcoxon rank-sum test was used when the ANOVA conditions were not met. […]

Structures are written as SMILES.

As for `Cc1ccc(C(C)C)c(OC(=O)CCC(=O)Oc2c(C)c(C)c3c(c2C)CC[C@@](C)(CCC[C@H](C)CCC[C@H](C)CCCC(C)C)O3)c1` [THY-Tos], the “solubility (in words)” value in data set [1] was “poor solubility”. Besides, the “efficacy on an animal-based oral ulcer model compared with THY in combination with vitamin E” value in the data set on oral ulcer rats is “not significantly different”.
